Values belong to the compound of their own block, whether it stands above or below them.
Assays:
Mouse splenic B cells = test: Mouse Splenic B Cell Proliferation Assay; type: cell-based; settings: Balb/c splenic B cells stimulated with anti-mouse IgG IgM F(ab')2 10 μg/ml, 72 hours, 3[H]-thymidine
Method: Mouse Splenic B Cell Proliferation Assay
Spleens from Balb/c mice (<12 weeks old) were mashed through screens and red blood cells were removed from splenocytes with RBC lysing buffer (Sigma-Aldrich Chemical Co, —St. Louis, Mo.). T cells were depleted by incubation on nylon wool columns (Wako, Richmond, Va.). Resulting splenic B cells prepared this way were routinely >90% CD19^+ as measured by FACS analysis. B cells (1×10^5 cells per well) were added to serial dilutions of compounds in triplicate in 96-well flat-bottom plates in RPMI 1640 (Invitrogen, Grand Island, N.Y.), supplemented with 10% heat-inactivated fetal calf serum (FCS, Summit Biotechnology, Fort Collins, Colo.), containing 1% L-glutamine (Invitrogen), […] gentamicin (Invitrogen) and 5×10^−5M β-mercaptoethanol (Sigma-Aldrich). Cells were stimulated with 10 μg/ml of Affinipure F(ab′)2 fragment goat anti-mouse IgG IgM (Jackson Immunoresearch, West Grove, Pa.). Cultures were incubated for 72 hours, and pulsed for the last 6 hours with one μCi/well of ^3[H]-thymidine (PerkinElmer, Boston, Mass.) prior to harvest on a Packard cell harvester (PerkinElmer), and counted by liquid scintillation on a Packard TopCount NXT (PerkinElmer).

human recombinant Btk = biological target: T1, human recombinant Btk (Homo sapiens, UniProt Q06187); test: Human Recombinant Btk Enzyme Assay; type: biochemical; settings: human recombinant Btk 1 nM, ATP 20 μM, 60 min room temperature, Caliper LabChip
T1 construct: purchased Invitrogen Corporation
T1 sequence (Q06187 whole entry): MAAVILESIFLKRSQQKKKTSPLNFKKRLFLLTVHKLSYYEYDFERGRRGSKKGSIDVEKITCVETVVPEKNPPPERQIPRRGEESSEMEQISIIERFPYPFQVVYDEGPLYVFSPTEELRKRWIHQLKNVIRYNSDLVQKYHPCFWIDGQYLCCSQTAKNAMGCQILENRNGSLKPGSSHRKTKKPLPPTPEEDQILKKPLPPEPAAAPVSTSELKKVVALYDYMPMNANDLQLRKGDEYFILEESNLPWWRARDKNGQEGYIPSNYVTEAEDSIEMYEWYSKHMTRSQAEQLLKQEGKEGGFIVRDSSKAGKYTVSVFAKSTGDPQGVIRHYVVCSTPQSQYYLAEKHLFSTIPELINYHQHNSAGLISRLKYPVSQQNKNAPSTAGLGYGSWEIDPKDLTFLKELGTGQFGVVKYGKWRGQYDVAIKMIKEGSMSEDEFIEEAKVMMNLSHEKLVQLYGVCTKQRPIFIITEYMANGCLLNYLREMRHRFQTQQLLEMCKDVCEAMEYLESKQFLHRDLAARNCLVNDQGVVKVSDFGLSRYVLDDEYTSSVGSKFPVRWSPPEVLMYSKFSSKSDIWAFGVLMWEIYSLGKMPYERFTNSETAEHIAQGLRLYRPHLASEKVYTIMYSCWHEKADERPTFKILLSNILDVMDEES
Method: Human Recombinant Btk Enzyme Assay
To V-bottom 384-well plates were added test compounds, human recombinant Btk (1 nM, Invitrogen Corporation), fluoresceinated peptide (1.5 μM), ATP (20 μM), and assay buffer (20 mM HEPES pH 7.4, 10 mM MgCl2, 0.015% Brij35 and 4 mM DTT in 1.6% DMSO), with a final volume of 30 μL. After incubating at room temperature for 60 min, the reaction was terminated by adding 45 μl of 35 mM EDTA to each sample. The reaction mixture was analyzed on the Caliper LabChip 3000 (Caliper, Hopkinton, Mass.) by electrophoretic separation of the fluorescent substrate and phosphorylated product. Inhibition data were calculated by comparison to no enzyme control reactions for 100% inhibition and no inhibitor controls for 0% inhibition. Dose response curves were generated to determine the concentration required inhibiting 50% of kinase activity (IC50). Compounds were dissolved at 10 mM in dimethylsulfoxide (DMSO) and evaluated at eleven concentrations.
Using this assay, the following IC50 values derived by non-linear regression analysis were determined and compared to those values of certain compounds in US 2007/0078136 and US 2008/0045536.

Ramos RA1 B cells = test: Ramos FLIPR Assay (intracellular calcium); type: cell-based; settings: Homo sapiens; Ramos RA1 B cells stimulated with F(ab')2 anti-IgM/IgG, peak intracellular calcium; read-out: Human Ramos Cell FLIPR (IC50 uM)
Method: Ramos RA1 B cells (ATCC CRL-1596) at a density of 2×10^6 cells/ml in RPMI minus phenol red (Invitrogen 11835-030) and 50 mM HEPES (Invitrogen 15630-130) containing 0.1% BSA (Sigma A8577) were added to one half volume of calcium loading buffer (BD bulk kit for probenecid sensitive assays, # 640177) and incubated at room temperature in the dark for 1 hour. Dye-loaded cells were pelleted (Beckmann GS-CKR, 1200 rpm, RT, 5 minutes) and resuspended in RT RPMI minus phenol red with 50 mM HEPES and 10% FBS to a density of 1×10^6 cells/ml. 150 μl aliquots (150,000/well) were plated into 96 well poly-D-lysine coated assay plates (BD 35 4640) and briefly centrifuged (Beckmann GS-CKR 800 rpm, 5 minutes, without brake). 50 μl compound dilutions in 0.4% DMSO/RPMI minus phenol red+50 mM HEPES+10% FBS were added to the wells and the plate was incubated at RT in the dark for 1 hour. Assay plate was briefly centrifuged as above prior to measuring calcium levels.
Using the FLIPR1 (Molecular devices), cells were stimulated by adding 50 μl 200 μg/ml F(ab′)2 anti-IgM/IgG (Jackson ImmunoResearch 109-006-127) diluted in 1X HBSS (Invitrogen 14025-076), 50 mM HEPES, 0.1% BSA. Changes in intracellular calcium concentrations were measured for 180 seconds and percent inhibition was determined relative to peak calcium levels seen in the presence of F(ab′)2 anti-IgM/IgG only.

Human tonsillar B cells = test: Human Tonsillar B Cell Proliferation Assay; type: cell-based; settings: tonsillar B cells stimulated with anti Human IgG+IgM F(ab')2 40 μg/ml, 72 hours, 3[H]-thymidine
Excerpt: Human Tonsillar B Cell Proliferation Assay
Tonsils were excised from patients undergoing routine tonsillectomy. Tonsil tissue was minced, mashed through screens and mononuclear cells were isolated on ficoll density gradients (Lymphocyte Separation Media; Mediatech Inc., Herndon, Va.). T cells were depleted from mononuclear cells by rosetting with sheep red blood cells (SRBC, Colorado Serum Company; Denver, Colo.). Tonsillar B cells prepared by this method were routinely >95% CD19^+ as measured by FACS analysis. B cells (1×10^5 cells per well) were added to serial dilutions of compounds in triplicate in 96-well flat-bottom plates in RPMI 1640, (Invitrogen, Grand Island, N.Y.), supplemented with 10% heat-inactivated fetal calf serum (FCS, Summit Biotechnology, Fort Collins, Colo.), and containing antibiotic/antimycotic (Invitrogen, 1:100 dilution) and gentamicin (Invitrogen, 5 μg/ml). Cells were stimulated with 40 μg/ml AffinPure F(ab′)2 Fragment Goat anti Human IgG+IgM (Jackson Immunoresearch, West Grove, Pa.) in a total volume of 0.2 ml. Cultures were incubated for 72 hours, and pulsed for the last 6 hours with one μCi/well of ^3[H]-thymidine (PerkinElmer, Boston, Mass.) prior to harvest on a Packard cell harvester (PerkinElmer), and counted by liquid scintillation on a Packard TopCount NXT (PerkinElmer).

Compound: NC(=O)c1cnc2c(Nc3ccc(C(=O)N4CCOCC4)cc3)nc(N3CCC[C@@H](NC(=O)c4ccccc4)C3)nn12 [Example 30, (R)-2-(3-Benzamidopiperidin-1-yl)-4-(4-(morpholine-4-carbonyl)phenylamino)imidazo[1,2-f][1,2,4]-triazine-7-carboxamide]
IC50 (Mouse splenic B cells): 0.98 µM

IC50 (human recombinant Btk): 1.76 µM
Compound: CCOc1ccc(Nc2nc(N[C@H]3CC[C@H](N)CC3)nn3ccnc23)cc1 [XIII in US 2007/0078136, reference compound]

IC50 (human recombinant Btk): 0.8 µM
IC50 (Ramos RA1 B cells): 4.08 µM
Compound: CC(C)(C)c1ccc(C(=O)N[C@H]2CCCN(c3nc(Nc4ccc(C(=O)N5CCOCC5)cc4)c4nccn4n3)C2)cc1 [Example 2, (S)-4-tert-Butyl-N-(1-(4-(4-(morpholine-4-carbonyl)phenylamino)imidazo[1,2-f][1,2,4]triazin-2-yl)piperidin-3-yl)benzamide]

IC50 (human recombinant Btk): 0.2 µM
Compound: O=C(N[C@@H]1CCCN(c2nc(Nc3ccc(C(=O)N4CCOCC4)cc3)c3nccn3n2)C1)OCc1ccccc1 [Example 4, (R)-Benzyl 1-(4-(4-(morpholine-4-carbonyl)phenylamino)imidazo[1,2-f][1,2,4]triazin-2-yl)piperidin-3-ylcarbamate]

Compound: O=C(N[C@@H]1CCCN(c2nc(Nc3ccc(C(=O)N4CCOCC4)cc3)c3nccn3n2)C1)c1ccccc1 [Example 36, (R)—N-(1-(4-(4-(morpholine-4-carbonyl)phenylamino)imidazo[1,2-f][1,2,4]triazin-2-yl)piperidin-3-yl)benzamide]
IC50 (Human tonsillar B cells): 0.45 µM

IC50 (human recombinant Btk): 0.1 µM
Compound: CC(C)(C)c1ccc(C(=O)N[C@@H]2CCCN(c3nc(Nc4ccc(C(=O)N5CCOCC5)cc4)c4ncc(C#N)n4n3)C2)cc1 [Example 32, (R)-4-tert-Butyl-N-(1-(7-cyano-4-(4-(morpholine-4-carbonyl)phenylamino)imidazo[1,2-f][1,2,4]triazin-2-yl)piperidin-3-yl)benzamide]
IC50 (Mouse splenic B cells): 0.31 µM

IC50 (human recombinant Btk): 0.228 µM
Compound: N[C@H]1CC[C@H](Nc2cc(Nc3ccc4ccccc4n3)c3nccn3n2)CC1 [I(159) in US 2008/0045536, reference compound]

IC50 (Ramos RA1 B cells): 0.015 µM
Compound: CC(C)(C)c1ccc(C(=O)N[C@@H]2CCCN(c3nc(Nc4ccc(C(=O)N5CCOCC5)cc4)c4ncc(N)n4n3)C2)cc1 [Example 26, (R)—N-(1-(7-Amino-4-(4-(morpholine-4-carbonyl)phenylamino)imidazo[1,2-f][1,2,4]triazin-2-yl)piperidin-3-yl)-4-tert-butylbenzamide]
IC50 (Mouse splenic B cells): 0.08 µM

IC50 (human recombinant Btk): > 50 µM
Compound: Cc1c(N[C@H]2CC[C@H](N)CC2)nn2ccnc2c1Nc1ccc(C(=O)N2CCOCC2)cc1 [III(18) in US 2008/0045536, reference compound]

IC50 (human recombinant Btk): 1.96 µM
Compound: O=C(c1ccc(Nc2cc(N[C@H]3CCCNC3)nn3ccnc23)cc1)N1CCOCC1 [V(10) in US 2008/0045536, reference compound]

IC50 (Ramos RA1 B cells): 1.24 µM
Compound: NCc1cnc2c(Nc3ccc(C(=O)N4CCOCC4)cc3)nc(N3CCC[C@@H](NC(=O)c4cc5ccccc5[nH]4)C3)nn12 [Example 35, (R)—N-(1-(7-(Aminomethyl)-4-(4-(morpholine-4-carbonyl)phenylamino)imidazo[1,2-f][1,2,4]triazin-2-yl)piperidin-3-yl)-1H-indole-2-carboxamide]

IC50 (human recombinant Btk): 0.013 µM
IC50 (Ramos RA1 B cells): 0.028 µM
Compound: CC(C)(C)c1ccc(C(=O)N[C@@H]2CCCN(c3nc(Nc4ccc(C(=O)N5CCNCC5)cc4)c4nccn4n3)C2)cc1 [Example 11, (R)-4-tert-Butyl-N-(1-(4-(4-(piperazine-1-carbonyl)phenylamino)imidazo[1,2-f][1,2,4]triazin-2-yl)piperidin-3-yl)benzamide]

Compound: CC(C)(C)c1ccc(C(=O)N[C@@H]2CCCN(c3nc(Nc4ccc(C(=O)N[C@@H]5CCNC5)cc4)c4nccn4n3)C2)cc1 [Example 9, 4-tert-Butyl-N—((R)-1-(4-(4-((S)-pyrrolidin-3-ylcarbamoyl)phenylamino)imidazo[1,2-f][1,2,4]triazin-2-yl)piperidin-3-yl)benzamide]
IC50 (Human tonsillar B cells): 1.91 µM
IC50 (Mouse splenic B cells): 1.29 µM

IC50 (Ramos RA1 B cells): 0.26 µM
Compound: CC(C)(C)c1ccc(C(=O)N[C@@H]2CCCN(c3nc(Nc4ccc(C(=O)N5CCOCC5)cc4)c4nccn4n3)C2)cc1 [Example 1, (R)-4-tert-Butyl-N-(1-(4-(4-(morpholine-4-carbonyl)phenylamino)imidazo[1,2-f][1,2,4]triazin-2-yl)piperidin-3-yl)benzamide]

IC50 (human recombinant Btk): 0.081 µM
Compound: CC(C)(C)c1ccc(C(=O)N[C@@H]2CCCN(c3nc(Nc4ccc(C(=O)N5CC(O)C5)cc4)c4nccn4n3)C2)cc1 [Example 20]

Compound: CC(C)(C)c1ccc(C(=O)N[C@@H]2CCCN(c3nc(Nc4ccc(C(=O)N5CCN(CCO)CC5)cc4)c4nccn4n3)C2)cc1 [Example 6, (R)-4-tert-Butyl-N-(1-(4-(4-(4-(2-hydroxyethyl)piperazine-1-carbonyl)phenylamino)imidazo[1,2-f][1,2,4]triazin-2-yl)piperidin-3-yl)benzamide]
IC50 (Human tonsillar B cells): 0.17 µM

Compound: CC(C)(C)c1ccc(C(=O)N[C@@H]2CCCN(c3nc(Nc4ccc(C(=O)N[C@H]5CCNC5)cc4)c4nccn4n3)C2)cc1 [Example 12, 4-tert-Butyl-N—((R)-1-(4-(4-((R)-pyrrolidin-3-ylcarbamoyl)phenylamino)imidazo[1,2-f][1,2,4]triazin-2-yl)piperidin-3-yl)benzamide]
IC50 (Human tonsillar B cells): 1.58 µM

Compound: CN1CCN(C(=O)c2ccc(Nc3nc(N4CCC[C@@H](NC(=O)c5ccc(C(C)(C)C)cc5)C4)nn4ccnc34)cc2)CC1 [Example 5, (R)-4-tert-Butyl-N-(1-(4-(4-(4-methylpiperazine-1-carbonyl)phenylamino)imidazo[1,2-f][1,2,4]triazin-2-yl)piperidin-3-yl)benzamide]
IC50 (Human tonsillar B cells): 0.037 µM

IC50 (human recombinant Btk): 0.014 µM
Compound: Nc1cnc2c(Nc3ccc(C(=O)N4CCOCC4)cc3)nc(N3CCC[C@@H](NC(=O)c4cc5ccccc5[nH]4)C3)nn12 [Example 28, (R)—N-(1-(7-Amino-4-(4-(morpholine-4-carbonyl)phenylamino)imidazo[1,2-f][1,2,4]triazin-2-yl)piperidin-3-yl)-1H-indole-2-carboxamide]

Compound: CC(C)(C)c1ccc(C(=O)N[C@@H]2CCCN(c3nc(Nc4ccc(C(N)=O)cc4)c4nccn4n3)C2)cc1 [Example 10, (R)-4-tert-Butyl-N-(1-(4-(4-carbamoylphenylamino)imidazo[1,2-f][1,2,4]triazin-2-yl)piperidin-3-yl)benzamide]
IC50 (Mouse splenic B cells): 0.33 µM

Reference: US8188272B2, “Fused heterocyclic compounds useful as kinase modulators” (Bristol-Myers Squibb Company, priority 2007, dated 2012)
